Structures can show the parent of a compound that is named as a salt.
Assays:
[1] = target: PCP receptors; conditions: cited from earlier work
[2] = tested on: isolated kidney; assay: Rat model of kidney cold ischemia (cold perfusion and storage of isolated kidney); conditions: for mRNA levels of BAX / mRNA levels of Bcl-2: stored kidneys; for mRNA levels of BAX: difference not statistically significant; for reducing, delaying or preventing functional and/or structural damage of a stored organ or tissue (comparison of the three agonists): fluvoxamine, SA-4503 and PRE-84 compared
Description: Male Wistar rats were anesthetized with isoflurane (3% vol/vol) mixed with synthetic air (1 L/min) before surgery and placed on a temperature-controlled table to maintain core body temperature. Kidneys (n=6/group) were washed through the renal arteries with 5 ml cold solution, then removed from the animal and placed into a container filled with the same solution for either 2 or 3 hours. […] 3h CP); (viii) Custodiol containing 0.003 mg/mL FLU, 3 hours of cold perfusion (Cust. […] After cold ischemia kidneys were immediately snap-frozen in liquid nitrogen and stored at −80° C. or fixed in buffered 8% formalin for further processing.
Kidneys were fixed in 8% formalin, embedded into paraffin and 5 μm sections were stained with periodic acid-Schiff (PAS) to assess tubular injury. Images were taken with Panoramic Viewer (3[…] Ltd., Budapest, Hungary). Tubular luminal areas were measured in three fields of magnification ×200 per rat. The analysis was performed in a double-blinded fashion with computer-assisted morphometry using Adobe Photoshop CS6 (Adobe Systems Corporation, San José, Calif., USA) and Image J (National Institute of Health, Bethesda, MD, USA) softwares on a Zeiss Axiolmager A1 light-microscope (Carl Zeiss A G, Jena, Germany).
Total RNA was isolated from kidneys with GeneAid Total RNA Mini Kit (Geneaid Biotech Ltd., New Taipei City, Taiwan). 500 ng RNA was reverse-transcribed using Maxima First Strand cDNA Synthesis Kit for RT-qPCR (Thermo Scientific, Waltham, MA, USA) to generate first-strand cDNA. mRNA expressions of Ngal (Lcn2), Kim1, Mcp1, IL-1α (Il1α), IL-6 (Il6), IL-10 (Il10), TNF-α (Tnf), HO-1 (Hmox1), Bax, Bcl-2 (Bcl2), 18S ribosomal RNA (Rn18s) and β-actin (Actb) were determined with real-time RT-PCR using Light Cycler 480 SYBR Green 1 Master enzyme mix on a Light Cycler system (Roche Diagnostics, Mannheim, Germany). The reaction mix contained 10 pmol/μl of each PCR primer (Table 1; Integrated DNA Technologies Inc., Coralville, IA, USA), 10 μl of Light Cycler 480 SYBR Green 1 Master enzyme mix and 1 μl of cDNA sample. The conditions of the PCRs were as follows: 1 cycle at 95° C. for 5 minutes, followed by 70 cycles under the appropriate PCR conditions. Quantification was performed with the second-derivative method by monitoring the cycle number at which the fluorescent sign could be distinguished from the background. Results were analyzed with Light Cycler 480 software version 1.5.0.39 (Roche Diagnostics, Mannheim, Germany). The mRNA expression of each gene was determined by comparison to 18S ribosomal RNA as housekeeping gene from the same sample.
All reagents for Western blotting were purchased from Bio-Rad Laboratories, Hercules, CA, USA unless stated otherwise. Tissue samples were lysed in buffer containing leupeptin, aprotinin, Triton X-100, Tris-HCl, Ethylene glycol-bis (2-aminoethylether),N,N,N′,N′-tetraacetic-acid, NaF, Phenylmethylsulphonylfluoride and Na-orthovanadate (each substance were purchased from Sigma-Aldrich Co., St. Louis, MO, USA). Protein concentrations were determined using Bradford assay. […] Pre-stained protein mixture was used as marker of molecular mass. The separated proteins were transferred into nitrocellulose membranes. Non-specific binding sites were blocked in 5% non-fat dry milk containing blot solution. Membranes were incubated with monoclonal antibody specific to rat cleaved caspase-3 (Asp175) (Cell Signaling Technology, Danvers, MA, USA) diluted to 1:1000. Blots were washed and incubated (1 hour, room temperature) with peroxidase-conjugated goat anti-rabbit IgG secondary antibody (Cell Signaling Technology, Danvers, MA, USA) diluted to 1:4000. […] Bands were analyzed with Quantity One software version 4.6.9. Protein abundance was represented as Integrated Optical Density (IOD)/Ponceau S compared to controls.
Data were analyzed using GraphPad Prism software (GraphPad Software Inc., La Jolla, CA, USA).

[3] = tested on: autotransplanted kidney; assay: Rat model of kidney isograft autotransplantation (ATx) after cold storage in preservation solution; assay type: in vivo; conditions: for Kidney function / serum AST levels / serum creatinine levels: vs preservation solution without S1R agonist; for NGAL levels: compared to Custodiol; for Tubular lumen areas (tubular dilatation): vs standard preservation solution, PAS-stained sections
Description: The institutional committee on animal welfare approved all experiments. Experiments were performed on Male Wistar rats weighing 205±15 g (Toxi-Coop Toxicological Research Center, Dunakeszi, Hungary). Animals were housed in a temperature-controlled (22±1° C.) room with alternating light and dark cycles and had free access to standard rat chow and water. Male Wistar rats (n=8/group) were anesthetized with isoflurane (3% vol/vol) mixed with synthetic air (1 L/min) before surgery and placed on a temperature-controlled table to maintain core body temperature. Left kidneys were perfused with cold Custodiol perfusion solution (Na^+: 15 mmol/L; K^+: 9 mmol/L; Mg^2+: 4 mmol/L; Ca^2+: 0.015 mmol/L; histidine: 198 mmol/L; tryptophan: 2 mmol/L; ketoglutarate: 1 mmol/L; mannitol: 30 mmol/L) (Franz Kohler Chemie GMBH, Bensheim, Germany), then removed from the animal: kidneys were placed into a container for 2 hours filled with either (i) cold Custodiol perfusion solution (ATx) or (ii) cold Custodiol perfusion solution containing 0.003 mg/mL FLU (ATx FLU) or (iii) cold Custodiol perfusion solution containing 0.003 mg/mL SA4503 (ATx SA). After 2 hours kidneys were placed back into the rats and end-to-end anastomoses of the renal artery, vein and ureter were performed. […] Total warm ischemia time was 35 min in all animals. Sham operated animals served as controls. After 24 hours of reperfusion, blood samples were collected from the abdominal aorta, the remnant kidneys were harvested, instantly snap-frozen in liquid nitrogen, and stored at -80° C. or fixed in buffered 8% formalin for further processing. The experimental design of the autotransplantation is shown in FIG. 9 Metabolic (glucose, fructosamine, total and HDL-cholesterol, triglycerides) and renal functional parameters from rat sera (sodium, potassium, creatinine, blood urea nitrogen (BUN), aspartate transaminase (AST)) were determined with commercially available kits on a Hitachi 912 photometric chemistry analyzer. Kidneys were fixed in 8% formalin, embedded into paraffin and 5 μm sections were stained with periodic acid-Schiff (PAS) to assess tubular injury. Images were taken with Panoramic Viewer (3[…] Ltd., Budapest, Hungary). Tubular luminal areas were measured in three fields of magnification ×200 per rat. The analysis was performed in a double-blinded fashion with computer-assisted morphometry using Adobe Photoshop CS6 (Adobe Systems Corporation, San José, Calif., USA) and Image J (National Institute of Health, Bethesda, MD, USA) softwares on a Zeiss Axiolmager A1 light-microscope (Carl Zeiss A G, Jena, Germany). Formalin-fixed kidney samples were embedded into paraffin. 5 μm thick sections were mounted on Superfrost slides (Thermo Shandon, Runcorn, UK) and were manually deparaffinized. Assay was performed using the Apoptag® Peroxidase In situ Apoptosis Detection Kit (Millipore, Billerica, MA, USA). Briefly, samples were pretreated with Proteinase K for 15 min. Following repeated washing steps endogenous peroxidase activity was blocked by 3% H2O2 in methanol for 5 min at room temperature. Next, slides were incubated in reaction buffer containing 30% TdT enzyme for 1 hour at room temperature after which Stop buffer was added. Slides were incubated with anti-Dioxigenin Conjugate for 30 min at room temperature. Slides were developed using DAB peroxidase substrate. The areas of TUNEL-positive apoptotic nuclei were measured in three fields of magnification ×200 per rat. The analysis was performed using Adobe Photoshop CS6 (Adobe Systems Corporation, San José, Calif., USA) and Image J (National Institute of Health, Bethesda, MD, USA) softwares on a Zeiss Axiolmager A1 light-microscope (Carl Zeiss A G, Jena, Germany). Formalin-fixed kidney samples were embedded into paraffin. One to two micron thick sections were mounted on Superfrost slides (Thermo Shandon, Runcorn, UK) and were manually deparaffinized. Endogenous peroxidase activity was blocked by 3% H2O2 in methanol for 20 min at room temperature. […]

[4] = tested on: mitochondrial functions (liver); conditions: administered to rats or used in the preservation liquid of isolated liver; cited from earlier work
[5] = isolated kidneys stored in Custodiol, vs vehicle
[6] = 2 h cold storage in Custodiol with 0.003 mg/mL compound, ATx, 24 hours of reperfusion
[7] = stored and subsequently transplanted kidney
[8] = transplantation after storage, vs vehicle

For `O=C(OCCN1CCOCC1)C1(c2ccccc2)CCCCC1` [PRE-084, 2-morpholin-4-dylethyl 1-phenylcyclohexane-1-carboxylate], the IC50 [1] is listed as greater than 100 µM, the KIM-1 levels [2, 5] is listed as “inhibited the increase of KIM-1” and the “mRNA levels of BAX” value [2] is listed as “decreased”.

With `CCCN(CCC)CCc1ccc(OC)c(OCCc2ccccc2)c1` [NE100, N-dipropyl-2-[4-methoxy-3-(2-phenylethoxy)-phenyl]-ethylamine monohydrochloride] the “KIM-1 levels: effect of adding S1R antagonist to fluvoxamine” value [2] was “diminished the protective effect of fluvoxamine”.

In the case of `COCCCC/C(=N\OCCN)c1ccc(C(F)(F)F)cc1` [fluvoxamine, fluvoxamine maleate], the Kidney function [3, 6] is reported as “substantially improved”, the “serum AST levels” value [3, 6] is reported as “lower” and the serum creatinine levels [3, 6] is reported as “lower”. The “Levels of MCP-1” value ([3]; autotransplanted kidneys, vs vehicle) was “significantly less elevated”, the “mRNA levels of inflammatory cytokines (IL10, IL-1α, TNFα)” value [3, 7] was “decreased” and the “protein levels of inflammatory cytokines (IL10, IL-1α, TNFα)” value [3, 7] was “decreased”. For the same compound, the NGAL levels ([3]; transplantation after storage) was “significantly decreased”, the “histological damage on PAS-stained kidney sections” value ([3]; transplantation after storage, vs conventional preservation fluid (vehicle)) was “milder histological damage” and the “Tubular lumen areas (tubular dilatation)” value ([3]; transplantation after storage) was “significantly smaller”. The “Tubular lumen areas (tubular dilatation)” value ([3]; transplantation after storage, listed as FLU) was “less dilated”, the “BAX expression (mRNA)” value [3, 8] was “significant decrease” and the KIM-1 expression levels [3, 8] was “significantly lower expression”. For the same compound, the “increase of HO-1 expression” value [3, 8] was “prevented”, the “mRNA levels of Bcl-2” value [3, 8] was “significant increase” and the “apoptotic cells in TUNEL assay” value ([3]; transplantation after storage, vs vehicle treated kidneys) was “significantly less apoptotic cells”. The “structural damage after prolonged cold ischemia” value ([2]; 3, 8 or 24 hours of cold ischemia with Flu vs 2 hours ischemia without Flu) was “less pronounced”, the “increase of tubular damage (tubular lumen areas) from 2 to 3 hours of cold storage” value ([2]; Custodiol, 2 and 3 hours of cold storage) was “inhibited this increase of damage” and the “less tissue damage by histologic assay” value ([2]; after 1.5 fold longer or even 10 fold longer preservation time than organs in same solution without fluvoxamine) was 25%. The MCP-1 levels ([2]; after storage, vs conventional Custodiol) was “less elevated”, the Tubular lumen dilatation ([2]; cold storage without reperfusion, compound 0.003 mg/mL in preservation solution vs solution alone) was “less dilated” and the “reducing, delaying or preventing functional and/or structural damage of a stored organ or tissue (comparison of the three agonists)” value [2] was “surprisingly more effective than SA 4503”. The “reducing, delaying or preventing functional and/or structural damage of a stored organ or tissue (comparison of the three agonists)” value ([2]; listed as Fluvoxamine) was “most successful of the three compounds”, the KIM-1 levels [2, 5] was “decreased dramatically” and the “kidney structure on PAS-stained sections” value ([2]; perfused with FLU, harvested after 2 hours of cold ischemia) was “better preserved”. The KIM-1 levels ([2]; saline) was “milder, though a tendency of decrease is noticed”, the “NGAL mRNA expression” value ([2]; saline) was “Efficacy of fluvoxamine in saline was also demonstrated” and the “mRNA levels of Bcl-2” value [2] was “markedly increased”. The “mRNA levels of BAX” value [2] was “decreased”.

For `COc1ccc(CCN2CCN(CCCc3ccccc3)CC2)cc1OC` [SA 4503, 1-[2-(3,4-Dimethoxyphenyl)ethyl]-4-(3-phenylpropyl)piperazine], the “BUN (Blood urea nitrogen) levels” value [3, 6] was “significantly decreased”, the Kidney function [3, 6] was “substantially improved” and the “serum AST levels” value [3, 6] was “lower”. The serum creatinine levels [3, 6] was “lower”, the NGAL levels ([3]; transplantation after storage) was “significantly decreased” and the “Tubular lumen areas (tubular dilatation)” value ([3]; transplantation after storage) was “significantly smaller”. The KIM-1 expression levels [3, 8] was “significantly lower expression”, the KIM-1 levels [2, 5] was “inhibited the increase of KIM-1” and the “mRNA levels of Bcl-2” value [2] was “no such effect”. The “mRNA levels of BAX” value [2] was “decreased”.

In the case of `COc1ccc(CN2CCN(Cc3ccccc3)CC2)c(O)c1OC` [BHDP, N-benzyl-N′-(2-hydroxy-3,4-dimethoxybenzyl)-piperazine], the mitochondrial functions [4] is listed as “protected mitochondrial functions”.
